The results in this text go back to PMC6003355 (2018).

SMILES strings stand for the structures.

The subject of this experiment is WT T. oceani 112 ilvE RNA (RNA, riboswitch) GGAAGUGUACCUUAGGGUUCCGGCCAUAAGGCGUCAGCGACCGAGCGGUACAAUCCGGGGAAACCCGGAACACCGUGAGCAUAAAAGGCUCCAGCGGCAAGUUCCUAAAAGA
The experiment can be described thus: in-line probing. To be noted: apparent; ppGpp 200 pM to 5 µM.

As to `Nc1nc2c(ncn2[C@@H]2O[C@H](COP(=O)(O)OP(=O)(O)O)[C@@H](OP(=O)(O)OP(=O)(O)O)[C@H]2O)c(=O)[nH]1`, the KD was ~ 10 nM.
